Assay results as given in PubChem BioAssay (NCI).
“And” between values parts separate entries of the source, which are not always exact repeats. Identical values can stand only once.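 The compound was tested at five concentrations on cells cultured in 96-well plates, with a 48-hour exposure period. GI50 is the concentration that inhibits growth by half. TGI marks complete inhibition of growth.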 *1 amine or outer side, *2 acyl side, *3 side chain or, on linkers, in order; H or OH if unused. Where a SMILES comes first, the peptide text is derived from it. [ ]: non-standard residue; d: D form. The star is where a group is joined. X11 = C/C=C/CC(C)C(O)[C@H](N[*:1])C(=O)[*:2]; Leu(ol) = CC(C)C[C@H](N)CO; Iva = CC[C@](C)(N)C(=O)O; Octanoyl = CCCCCCCC(=O)*; Aib = CC(C)(N)C(=O)O

Test system: MDA-MB-468 breast
Assay: DTP human tumour cell line panel, 48 h

SMILES: CS(=O)(=O)CCc1cccc(C(=O)c2cnn(-c3ccc(F)cc3)c2N)c1
- GI50: > 25 µM
- TGI: > 25 µM

SMILES: CCN(CC)CCCNCc1cc(-c2ccccc2)nc2ccccc12
- GI50: 14.8 µM
- TGI: 30.8 µM

SMILES: CC(=O)c1c(C)[nH]c(-c2nc3ccc(N4CCN(C)CC4)cc3[nH]2)c1-c1ccc(N(C)C)cc1
- GI50: 0.2 µM
- TGI: 2.89 µM

SMILES: COc1cc(-c2cc(O)c(-c3ccc4ccccc4n3)c(=O)[nH]2)cc(OC)c1OC
- GI50: 3.38 µM
- TGI: 26 µM

SMILES: O=C(O)C1(C(=O)O)CCC1.[NH2-].[NH2-].[Pt+2]
- GI50: 43.7 µM
- TGI: > 216 µM

SMILES: c1ccc(CN2COc3c(ccc4c3OCN(Cc3ccccc3)C4)C2)cc1
- GI50: 0.796 µM
- TGI: 5.2 µM

SMILES: O=C(NCCCO)c1cc(Cl)ccc1O
- GI50: 1.19 µM
- TGI: 7.18 µM

SMILES: CCN(CC)CC(O)CNc1c2ccc([N+](=O)[O-])cc2nc2cc(OC)c(OC)cc12 (stereo not given)
- GI50: 0.172 µM
- TGI: 0.475 µM

SMILES: COCc1cc(C(=O)Nc2cc([C@H]3CC[C@@H](OC(=O)NC(C)C)C3)[nH]n2)n(C)n1
- GI50: 13.5 µM
- TGI: 35 µM

SMILES: CC(C)(C)c1cc(-n2c(-c3ccc(Cl)cc3)nc3cc(C(=O)Nc4ccc(Cl)cc4)ccc32)n[nH]1
- GI50: 4.88 µM
- TGI: > 100 µM

SMILES: CN(Cc1ccccc1)c1ccc(CO)c(Cl)c1
- GI50: 0.0795 µM
- TGI: 0.248 µM

SMILES: O=C1C=CC(=Nc2cc(Br)c(O)c(Br)c2)C=C1
- GI50: 10.5 µM
- TGI: 30.5 µM

SMILES: COc1ccc([C@@H]2C(=O)N(c3cc(OC)c(OC)c(OC)c3)[C@H]2c2ccc(OC)c(O)c2)cc1
- GI50: 0.0245 µM
- TGI: 0.0671 µM

SMILES: [N-]=[N+]=NCCCCCC(=O)OC(C(=O)c1ccccc1)c1cccc(OCC(=O)NCCOCCOCCNC(=O)CCCC[C@@H]2SC[C@@H]3NC(=O)N[C@@H]32)c1 (stereo not given in full)
- GI50: 27.5 µM
- TGI: > 100 µM

SMILES: O=C(Nc1ccncc1)C(=O)c1cn(S(=O)(=O)c2ccc(Cl)cc2)c2ccccc12
- GI50: 0.746 µM
- TGI: 9.11 µM

SMILES: Cc1nnc(-c2cccc(-c3ccc(C(=O)NCC4CC4)cc3)c2)o1
- GI50: > 25 µM
- TGI: > 25 µM

SMILES: COc1cc(NCCCN=C(N)NC(N)=NC(C)C)c2ncccc2c1
- GI50: 0.112 µM
- TGI: 0.501 µM

SMILES: CC(C)=CCC[C@](C)(O)[C@H]1CC[C@]2(C)[C@@H]1CC[C@@H]1[C@@]3(C)CC/C(=N/O)C(C)(C)[C@@H]3CC[C@]12C
- GI50: 8.7 µM
- TGI: 71.3 µM

SMILES: CC(C)=CCC/C(C)=C/CC/C(C)=C/CSc1ccccc1C(=O)O
- GI50: 27.5 µM
- TGI: > 90 µM

SMILES: Oc1ccc(-c2nc3ccccc3s2)cc1CN(Cc1ccccn1)Cc1ccccn1
- GI50: 2.48 µM
- TGI: 17 µM

SMILES: Cc1nc2ccccc2c(/C=C/c2ccc(Cl)cc2)c1C(=O)/C=C/c1ccc(C(F)(F)F)cc1
- GI50: 1.3 µM
- TGI: 2.93 µM

SMILES: O=C(Nc1ccc(-n2ccc3c(NC(=O)c4ccccc4)ncnc32)cc1)Nc1ccc(Cl)c(Cl)c1
- GI50: 1.92 µM
- TGI: 8.04 µM

SMILES: COC(=O)c1cc(O)c2cc3c(cc2c1-c1cc(OC)c(OC)c(OC)c1)OCO3
- GI50: 0.411 µM
- TGI: 44.7 µM

SMILES: C=CCN(C)S(=O)(=O)/N=C1\NC(=O)NC1=C(Cl)Cl
- GI50: 0.578 µM
- TGI: 15.6 µM

SMILES: Cc1nc(-c2cn3c(n2)-c2ccc(-c4cnn(C(C)(C)C(N)=O)c4)cc2OCC3)n(C(C)C)n1
- GI50: 0.134 µM and 0.0499 µM
- TGI: 1.55 µM and 0.822 µM

SMILES: Nc1c(C(=O)Nc2cccc(F)c2)sc2nc3c(cc12)C(=O)CCC3
- GI50: 0.159 µM
- TGI: > 100 µM

SMILES: CNC(=O)c1ccccc1Nc1nc(Nc2cc(OC)c(OC)c(OC)c2)ncc1Br
- GI50: 0.0782 µM
- TGI: 0.625 µM

SMILES: C/C=C/CC(C)C(O)[C@H](NC(=O)[C@@H]1CCCN1C(=O)C(C)(C)NC(=O)CCCCCCC)C(=O)N[C@@](C)(CC)C(=O)N[C@@H](CCC(N)=O)C(=O)N[C@H](CCC(N)=O)C(=O)NC(C)(C)C(=O)NC(C)(C)C(=O)N[C@@H](CCC(N)=O)C(=O)N[C@H](CC(C)C)C(=O)N[C@H](CO)CC(C)C (stereo partly drawn) (Octanoyl-[Aib]P[X11][Iva]Q[dQ][Aib][Aib]Q[dL][Leu(ol)])
- GI50: 1.68 µM
- TGI: 3.35 µM

SMILES: C=C1CCC2C3(C)COC(c4ccccc4)OC3CCC2(C)C1/C=C/C1=CCOC1=O (stereo not given)
- GI50: 2.49 µM
- TGI: 6.41 µM

SMILES: CC(=O)C1=C(O)C=C2Oc3c(C(=O)/C=C/c4c(Cl)cccc4Cl)c(O)c(C)c(O)c3[C@]2(C)C1=O
- GI50: 1.19 µM
- TGI: 4.89 µM

SMILES: O=c1cc(-c2cccc3c2Sc2ccccc2S3)oc(N2CCOCC2)c1
- GI50: 2.8 µM
- TGI: 14.5 µM

SMILES: Cc1cc(N2CCOCC2)nc(N[C@@H]2CCC[C@H](Nc3ccnc4cc(Cl)ccc34)C2)n1
- GI50: 1.76 µM
- TGI: 4.04 µM

SMILES: O=C(COc1cc(O)c2c(=O)cc(-c3ccccc3)oc2c1)Nc1ccccc1C(F)(F)F
- GI50: 4.95 µM
- TGI: 35.8 µM

SMILES: O=C(c1ccccc1)C(CN1CCCCC1)c1ccccc1 (stereo not given)
- GI50: 0.536 µM
- TGI: 1.9 µM

SMILES: C[n+]1c2cc(N)ccc2cc2ccc(N)cc21
- GI50: 342 nM [middle of 4 runs]

SMILES: COc1cccc(NC(=O)c2sc3nc(C)c(C(O)c4ccccc4)cc3c2N)c1 (stereo not given)
- GI50: 0.27 µM
- TGI: 30.2 µM

SMILES: O=C(c1ccccc1)C1OC1c1ccc([N+](=O)[O-])cc1 (stereo not given)
- GI50: 2.28 µM
- TGI: 6.79 µM

SMILES: O=Nc1ccc(NO)c2ccccc12
- GI50: 13.9 µM
- TGI: 44.4 µM

SMILES: C=CC(=O)Nc1cc(C)ccc1Nc1nc(Nc2cc(OC)ncc2C)ncc1C(F)(F)F
- GI50: 1.86 µM
- TGI: 6.06 µM

SMILES: NCCOCCOCCNc1nc(-c2ccccc2)nc(N2CCN(c3ccccn3)CC2)n1
- GI50: 7.23 µM
- TGI: 20.6 µM

SMILES: COc1ccc2c(=O)cc(C(Cl)(Cl)Cl)oc2c1
- GI50: 0.383 µM
- TGI: 14.4 µM

SMILES: O=C(Cc1ccc(F)c(F)c1)Nc1cc(C2(C(F)(F)F)CC2)nn1Cc1ccccc1
- GI50: 2.67 µM
- TGI: 9.41 µM

SMILES: O=C(CCC(=O)N1CCOCC1)OCCCCCCSc1ccc([N+](=O)[O-])c2nonc12
- GI50: 1.11 µM
- TGI: 2.9 µM
